According to patent US5356911A, “Substituted biphenylpyridones” (Bayer Aktiengesellschaft, priority 1991, dated 1994):
Counter-ions that a name gives are not always drawn.

Test system: contraction of the isolated rabbit aorta induced by angiotensin II
Assay: Inhibition of the angiotensin II-induced vascular contraction of isolated rabbit aorta rings in vitro
Assay type: cell-based
Settings: Oryctolagus cuniculus; isolated aorta rings of rabbits in vitro; based on 3rd = sub-maximal agonist concentration; read-out: IC50 for contractions induced by AII
Procedure: Investigation of the Inhibition of the Contraction Induced by Agonists
Rabbits of both sexes are stunned by a blow to the neck and bled out, or in some cases anaesthetised with Nembutal (about 60-80 mg/kg i.v.) and sacrificed by opening the thorax. The thorax aorta is removed, freed of adhering connective tissue, divided into 1.5 mm wide ring segments and individually transferred under an initial loading of about 3.5 g to 10 ml organ baths containing 95% O2, 5% CO2 -aerated Krebs-Henseleit nutrient solution adjusted to 37° C. and of the following composition: 119 mmol/l of NaCl; 2.5 mmol/l of CaCl2 ×2H2 O; 1.2 mmol/l of KH2 PO4; 10 mmol/l of glucose; 4.8 mmol/l of KCl; 1.4 mmol/l of MgSO4 ×7 H2 O and 25 mmol/l of NaHCO3.
The contractions are detected isometrically by Statham UC2 cells by means of bridge amplifiers (ifd Mulheim or DSM Aalen) and digitalised and analysed by means of an A/D converter (System 570, Keithley Munich). The agonist dose-response curves (DRC) are carried out hourly. With each DRC, 3 or 4 individual concentrations are applied to the baths at 4 min intervals. After the end of the DRC and subsequent washing-out cycles (16 times, in each case about 5 sec/min with the abovementioned nutrient solution), a 28-minute resting or incubation phase follows, in the course of which the contractions as a rule reach the starting value again.
The height of the 3rd DRC, in the normal case, is used as a reference quantity for the assessment of the test substance to be investigated in other passages, which is applied to the baths in the following DRCs in increasing dosage in each case at the start of the incubation time. Each aorta ring is in this way stimulated for the whole day, always with the same agonist.
For the calculation of the IC50 (concentration at which the substance to be investigated causes a 50% inhibition), the effect is in each case based on the 3rd=sub-maximal agonist concentration.
rings of rabbits in vitro
IC50 (g/ml) for contractions induced by: AII

Row | IC50 [nM] | Compound
1 | 34 | CCCc1cc(C(=O)OC)cc(=O)n1Cc1ccc(-c2ccccc2-c2nnn[nH]2)cc1 [LXXVIII]
2 | 3.7 | CCCCc1cc(C(N)=O)cc(=O)n1Cc1ccc(-c2ccccc2-c2nnn[nH]2)cc1 [XLV]
3 | 120 | CCCCc1cc(C(=O)O)cc(=O)n1Cc1ccc(-c2ccccc2-c2nnn[nH]2)cc1 [Example XCII, 6-Butyl-4-carboxy-2-oxo-1[(2'-tetrazol-5-yl-biphenyl-4-yl)methyl-1,2-dihydropyridinedisodium salt]
4 | 13 | CCCCc1cc(CO)cc(=O)n1Cc1ccc(-c2ccccc2-c2nnn[nH]2)cc1 [LIV]

The remaining lines, values behind:

Row | Compound | IC50 [nM]
5 | CCCCc1cccc(=O)n1Cc1ccc(-c2ccccc2-c2nnn[nH]2)cc1 [XXXIII] | 7.3
6 | CCCCc1cc(C(=O)OCc2ccccc2)cc(=O)n1Cc1ccc(-c2ccccc2-c2nnn[nH]2)cc1 [XLIII] | 39

Molecular target: T1, Angiotensin II receptor (Bos taurus, UniProt P25104)
T1 construct: Adrenal cortices of cattle (ACC), which have been freshly removed and carefully freed of gland medulla; from tissue; host or cells: bovine adrenal cortex, partially purified membrane fractions
T1 sequence (P25104 1-359): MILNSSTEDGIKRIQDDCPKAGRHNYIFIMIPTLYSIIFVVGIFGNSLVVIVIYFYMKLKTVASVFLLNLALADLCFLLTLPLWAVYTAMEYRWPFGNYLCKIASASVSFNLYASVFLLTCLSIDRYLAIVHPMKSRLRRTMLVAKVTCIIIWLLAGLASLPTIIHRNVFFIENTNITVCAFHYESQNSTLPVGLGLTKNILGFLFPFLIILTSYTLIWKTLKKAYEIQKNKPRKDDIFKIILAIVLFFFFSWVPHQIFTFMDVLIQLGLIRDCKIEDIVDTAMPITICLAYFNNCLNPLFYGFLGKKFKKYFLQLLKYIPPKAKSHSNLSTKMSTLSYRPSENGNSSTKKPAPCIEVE
Assay: Inhibition of specific binding of 3H-angiotensin II to the angiotensin II receptor on membrane fractions of the adrenal cortex
Set-up: species or system cattle (bovine)
Settings: 3H-angiotensin II (3-5 nM), bovine adrenal cortex membranes, 60 min, room temperature
Text: Interaction of the Compounds According to the Invention With the Angiotensin II Receptor on Membrane Fractions of the Adrenal Cortex (Cattle)
Adrenal cortices of cattle (ACC), which have been freshly removed and carefully freed of gland medulla, are comminuted in sucrose solution (0.32M) with the aid of an Ultra-Turrax (Janke & Kunkel, Staufen i.B.) to give a coarse membrane homogenate and partially purified in two centrifugation steps to give membrane fractions. The investigations of receptor binding were carried out on partially purified membrane fractions of bovine ACC using radioactive angiotensin II in an assay volume of 0.25 ml, which in detail contains the partially purified membranes (50-80 μg), ^3 H-angiotensin II (3-5 nM), test buffer solution (50 mM tris, pH 7.2, 5 mM MgCl2 and the substances to be investigated. After an incubation time of 60 min at room temperature, the unbound radioactivity of the samples is separated by means of moistened glass fibre filters (Whatman GF/C) and the bound radioactivity is measured spectrophotometrically in a scintillation cocktail after washing the protein with ice-cold buffer solution (50 mM tris/HCl, pH 7.4, 5% PEG 6000). The analysis of the raw data was carried out using computer programs to give Ki and IC50 values (Ki: IC50 values corrected for the radioactivity used; IC50 values: concentration at which the substance to be investigated causes a 50% inhibition of the specific binding of the radioligand).

Row | Ki [nM] | Compound
7 | 15 | CCCCc1cc(COC)cc(=O)n1Cc1ccc(-c2ccccc2-c2nnn[nH]2)cc1 [Example LV]
8 | 79 | CCCCc1cc(COC)cc(=O)n1Cc1ccc(-c2ccccc2-c2nnn[nH]2)cc1 [LXXXII]
9 | 9 | CCCc1cc(C(N)=O)cc(=O)n1Cc1ccc(-c2ccccc2-c2nnn[nH]2)cc1 [Example LVI]

The remaining lines, values behind:

Row | Compound | Ki [nM]
10 | N#Cc1c(C(=O)O)cc(C2CC2)n(Cc2ccc(-c3ccccc3-c3nnn[nH]3)cc2)c1=O [XCIV] | 42
11 | CCc1cc(CC)n(Cc2ccc(-c3ccccc3-c3nnn[nH]3)cc2)c(=O)c1C#N [XXXIV] | > 10000
12 | CCCCc1cc(C(=O)OCC)c(C#N)c(=O)n1Cc1ccc(-c2ccccc2-c2nnn[nH]2)cc1 [XLVII] | 220

Test system: Angiotensin II-Infused Rat
Assay: Blood pressure measurements on the angiotensin II-infused rat
Assay type: in vivo, Male Wistar rats
Settings: 0.3 mg/kg p.o.; angiotensin II infusion 0.3 μg/kg/min; anaesthetised rats
Procedure: Blood Pressure Measurements on the Angiotensin II-Infused Rat
Male Wistar rats (Moellegaard, Copenhagen, Denmark) having a body weight of 300-350 g are anaesthetised with thiopental (100 mg/kg i.p.). After tracheotomy, one catheter is inserted in the femoral artery for blood pressure measurement and one catheter is inserted in the femoral veins for angiotensin II infusion and one catheter for substance administration. After administration of the ganglionic blocker pentolinium (5 mg/kg i.v.), angiotensin II infusion (0.3 μg/kg/min) is started. As soon as the blood pressure values have reached a stable plateau, the test substances are administered either intravenously or orally as a suspension or solution in 0.5% tylose.

Row | Compound | Blood pressure decrease [mm Hg]
13 | 6-Butyl-4-methoxycarbonyl-2-oxo-1-{[2'-(N-triphenylmethyl-tetrazol-5-yl)biphenyl-4-yl]methyl}-1,2-dihydropyridine [Example I] | > 50
